The record followed here is patent US20200000917A1, “METHODS OF PHOTOCHEMICAL TREATMENT FOR WOUND HEALING” (The General Hospital Corporation, priority 2017, published 2020).

Assay [1] concerns full-thickness, excisional 1 cm by 1 cm wounds on the dorsa of C57BL/6 mice. Kind of assay: Histology of harvested wound tissue after photochemical treatment. Format: in vivo. Particulars: days 7, 21 and 42 post wound creation; Rose Bengal solution + KTP laser 532 nm, 60 J/cm2. How it is done:
By way of example, the above-described system 20 and method 10 were studied in comparison to untreated control wounds. The study was carried out according to the steps illustrated in FIG. 3. Generally, FIG. 3 illustrates a wound creation step 30, an activating agent delivery step 32, an illumination step 34, and a post-treatment step 36. More specifically, at step 30, full-thickness, excisional 1 cm by 1 cm wounds 38 were created on the dorsa of C57BL/6 mice 40 in both a control group of 16 mice and a test group of 16 mice. Additionally, dots 42 were tattooed on the skin around the wound perimeter in both the control and test groups (as shown in step 34) in order to monitor contracture over the course of wound healing. Following step 30, control group wounds were left alone to heal. With respect to the test group, at step 32, a Rose Bengal solution was painted onto wound beds 38 (e.g., as discussed above with respect to process block 12 of FIG. 1). At step 34, the wounds 38 were illuminated by an electromagnetic radiation source 26, in particular, a KTP laser having a 532-nanometer wavelength, with an energy output of 60 Joules per centimeter squared (e.g., as discussed above with respect to process block 14 of FIG. 1). […]
To compare the test and control groups, the area within each tattooed wound perimeter was serially measured over 6 weeks and percent contracture was calculated. […]

Assay [2] shares this test system. The experiment in a line: Wound contracture after photochemical treatment (area within tattooed wound perimeter). Format: in vivo. How it is done: By way of example, the above-described system 20 and method 10 were studied in comparison to untreated control wounds. The study was carried out according to the steps illustrated in FIG. 3. Generally, FIG. 3 illustrates a wound creation step 30, an activating agent delivery step 32, an illumination step 34, and a post-treatment step 36. More specifically, at step 30, full-thickness, excisional 1 cm by 1 cm wounds 38 were created on the dorsa of C57BL/6 mice 40 in both a control group of 16 mice and a test group of 16 mice. Additionally, dots 42 were tattooed on the skin around the wound perimeter in both the control and test groups (as shown in step 34) in order to monitor contracture over the course of wound healing. Following step 30, control group wounds were left alone to heal. With respect to the test group, at step 32, a Rose Bengal solution was painted onto wound beds 38 (e.g., as discussed above with respect to process block 12 of FIG. 1). At step 34, the wounds 38 were illuminated by an electromagnetic radiation source 26, in particular, a KTP laser having a 532-nanometer wavelength, with an energy output of 60 Joules per centimeter squared (e.g., as discussed above with respect to process block 14 of FIG. 1). Steps 32 and 34 were conducted immediately after wound creation at step 30. Step 36 illustrates the immediate result of wound treatment, that is, the photobleaching of Rose Bengal dye.
To compare the test and control groups, the area within each tattooed wound perimeter was serially measured over 6 weeks and percent contracture was calculated. Additionally, at 7, 14, 21, and 42 days, mice were euthanized and tissue was harvested for histology.

Take `O=C([O-])c1c(Cl)c(Cl)c(Cl)c(Cl)c1-c1c2cc(I)c(=O)c(I)c-2oc2c(I)c([O-])c(I)cc12.[Na+].[Na+]` [Rose Bengal]: the “histological review of wound tissue compared to control group tissue” value in assay [1] was “increased ingrowth and development of dermal cells, increased vascularity, and appearance of skin appendages earlier and to a greater degree”. Further, the “more contracture in control wounds than in test group” value in assay [2] (by day 7) is on record as roughly 20%. In assay [2] (day 7, Rose Bengal solution painted on wound bed, KTP laser 532 nm, 60 J/cm2, immediately after wound creation, control 80.3±8.5%, p=0.014), the percent contracture is on record as 67.1±17.1%. Further, the “wounds contracted to (percentage of initial area of skin around wound perimeter)” value in assay [2] (day 42, Rose Bengal solution + KTP laser 532 nm, 60 J/cm2, control 13.6±5.6%, p=0.003) amounted to 35.2±2.9%. The “fold difference in remaining area, test group versus control group” value in assay [2] (day 42, p=0.003) amounted to 1.59 fold.
